In patent US6903089B1, “Lactam-substituted pyrazolopyridine derivatives” (Bayer Aktiengesellschaft, priority 2000, dated 2005):

tested on: rabbit aorta rings; test: Vasorelaxant effect in vitro (phenylephrine-contracted rabbit aorta rings); details: Oryctolagus cuniculus, contraction generated by phenylephrine, concentration reducing height of control contraction by 50%
Protocol: Rabbits are stunned by a blow to the back of the neck and are exsanguinated. The aorta is removed, freed of adherent tissue, divided into rings 1.5 mm wide and put singly under tension in 5 ml organ baths containing carbogen-gassed Krebs-Henseleit solution at 37° C. with the following composition (mM): NaCl: 119; KCl: 4.8; CaCl2×2H2O: 1; MgSO4×7 H2O: 1.4; KH2PO4: 1.2; NaHCO3: 25; glucose: 10. The force of contraction is detected with Statham UC2 cells, amplified and digitized via A/D converters (DAS-1802 HC, Keithley Instruments Munich) and recorded in parallel on chart recorders. A contraction is generated by adding phenylephrine to the bath cumulatively in increasing concentration. After several control cycles, the substance to be investigated is investigated in each further run in increing dosage in each case, and the height of the contraction is compared with the height of the contraction reached in the last preceding run. The concentration necessary to reduce the height of the control value by 50% (IC50) is calculated from this. The standard application volume is 5 μl, and the DMSO content in the bath solution corresponds to 0.1%.

IC50 | SMILES
600 nM | Nc1nc(-c2nn(Cc3ccccc3F)c3ncccc23)ncc1N1C(=O)c2ccccc2C1=O [Example 22, 2-{4-Amino-2-[1-(2-fluorobenzyl)-1H-pyrazolo[3,4-b]pyridin-3-yl]-5-pyrimidinyl}-1H-isoindole-1,3(2H)-dione]
690 nM | CC1C(=O)N(c2cnc(-c3nn(Cc4ccccc4F)c4ncccc34)nc2N)C(=O)C1(C)C (centres unmarked) [Example 13]
1990 nM | Nc1nc(-c2nn(Cc3ccccc3F)c3ncccc23)ncc1N1CCCCC1=O [Example 3]
1050 nM | Nc1nc(-c2nn(Cc3ccccc3F)c3ncccc23)ncc1N1CCCCCC1=O [Example 5]
410 nM | CC12CC1C(=O)N(c1cnc(-c3nn(Cc4ccccc4F)c4ncccc34)nc1N)C2=O (centres unmarked) [Example 19]
250 nM | CC(=O)Nc1nc(-c2nn(Cc3ccccc3F)c3ncccc23)ncc1N1CCOC1=O [Example 21, N-[2-[1-(2-Fluorebenzyl)-1H-pyrazolo[34-b]pyridin-3-yl]-5-(2-oxo-1,3-oxazolidin-3-yl)-4-pyrimidinyl]acetamide]
1200 nM | Nc1nc(-c2nn(Cc3ccccc3F)c3ncccc23)ncc1N1CCOC1=O [Example 15]
700 nM | CC1(C)CN(c2cnc(-c3nn(Cc4ccccc4F)c4ncccc34)nc2N)C(=O)C1(C)C [Example 9]
1230 nM | Nc1nc(-c2nn(Cc3ccccc3F)c3ncccc23)ncc1N1CCSC1=O [Example 16]
420 nM | CC1(C)OC(=O)N(c2cnc(-c3nn(Cc4ccccc4F)c4ncccc34)nc2N)C1=O [Example 14, 3-{4-Amino-2-[1-(2-fluorobenzyl)-1H-pyrazolo[3,4-b]pyridin-3-yl]-5-pyrimidinyl}-5,5-dimethyl-1,3-oxazolidine-2,4-dione]
1100 nM | Nc1nc(-c2nn(Cc3ccccc3F)c3ncccc23)ncc1N1CCCC1=O [Example 2]
